In paper PMC10253817, “Design, Pharmacological Characterization, and Molecular Docking of Minimalist Peptidomimetic Antagonists of α4β1 Integrin” (International Journal of Molecular Sciences, 2023):
One block for each compound: values may come before it. *1 amine or outer side, *2 acyl side, *3 side chain or, on linkers, in order; H or OH if unused. Where a SMILES comes first, the peptide text is derived from it. [ ]: non-standard residue; d: D form. The star is where a group is joined. X1 = O=C(Cc1ccc(N[*:1])cc1)[*:2]; NH(2-Me-phenyl) = Cc1ccccc1N*; CO = O=C([*:1])[*:2]

What was measured:
α4β1 integrin [1] = molecular target: T1, α4β1 integrin (Homo sapiens, UniProt P05556+P13612); assay: LDV-FITC competitive binding on intact Jurkat E6.1 cells
T1 construct: Jurkat E6.1 cell line, which endogenously expresses α4β1 integrin; host or cells: Jurkat E6.1
Protocol: The assays were performed as previously described with the following modifications. Jurkat E6.1 cells were resuspended (50,000 cells/sample) in 0.1% BSA in a HEPES buffer (NaCl 110 mM; KCl 10 mM; Glucose 10 mM; MgCl2 1 mM; CaCl2 1.5 mM; HEPES 30 mM; pH 7.4) and pre-incubated with different concentrations (10^−11–10^−5 M) of compounds for 20–30 min at RT. Then, LDV-FITC (5 µM) was added to the cells, and they were incubated in the dark for an additional 30 min at RT. At the end of the incubation with LDV-FITC, cells were washed with 0.1% BSA in a HEPES buffer. The FITC fluorescence intensity was measured using an EnSpire Multimode Plate Reader (PerkinElmer, Waltham, MA, USA). The data were plotted as LDV-FITC specific bindings versus the concentration of the competitor, and the data were fitted to a one-site competition equation; the equilibrium dissociation constant Ki was calculated from the IC50 using the Cheng–Prusoff equation.

α4β1 integrin [2] = molecular target: T1, α4β1 integrin; assay: α4β1 integrin-mediated Jurkat E6.1 cell adhesion to FN; format: cell-based; conditions: Jurkat E6.1 cell adhesion to FN (10 μg/mL); antag. = reduced cell adhesion; mean ± SD
Protocol: To investigate the ability of the new peptides to modulate integrin-mediated cell adhesion, we employed cell adhesion assays using a Jurkat E6.1 cell line, which endogenously expresses α4β1 integrin and the natural ligand FN. […] On the contrary, ligands able to increase cell adhesion are defined as agonists.
(§1) The assays were performed as previously described. Briefly, regarding adhesion assays on Jurkat E6.1 or HL-60 cells, black 96-well plates (Corning Costar) were coated overnight at 4 °C with FN or Fg (10 μg/mL) or VCAM-1 (2 μg/mL) in order to investigate α4β1 integrin-mediated cell adhesion. To avoid any kind of unspecific binding, plates were incubated with 100 μL/well of blocking solution (1% BSA in HBSS) for 30 min at 37 °C. Cells were counted, stained with the CellTracker green CMFDA (12.5 μM, 30 min at 37 °C, Life Technologies Italia, Milan, Italy) and after three washes, were preincubated with increasing concentrations of new compounds (10^−10–10^−4 M) or with the vehicle (methanol) for 30 min at 37 °C.
(§2) Then, cells were plated (500,000/well) on coated wells and incubated for 30 min at 37 °C. Afterwards nonadherent cells were removed via washing with a blocking solution, and the remaining adhered cells were lysed with 0.5% Triton X-100 in PBS (30 min at 4 °C). Green fluorescence was measured (Ex485 nm/Em535 nm) using an EnSpire Multimode Plate Reader (PerkinElmer, Waltham, MA, USA).
(§3) In both types of adhesion assay, the number of adherent cells was determined via comparison with a standard curve made in the same plate. Experiments were carried out in quadruplicate and repeated at least three times. Data analysis and EC50 or IC50 values were calculated using GraphPad Prism 9.5.1 (GraphPad Software, San Diego, CA, USA).

[3] = parameters: method as in PMID 17523052, PMID 11682211; conditions: plasma; heparinized blood; homogenates of rat liver, lungs, and intestines; cited from earlier work
[4] = parameters: method as in PMID 12086484; conditions: cited from earlier work
[5] = tested on: antigen-induced airway hyper-responsiveness; parameters: method as in PMID 10934094; conditions: allergic sheep; cited from earlier work
αMβ2 integrin = molecular target: T2, αMβ2 integrin (Homo sapiens, UniProt P05107+P11215); assay: αMβ2 integrin-mediated HL60 cell adhesion to Fg; format: cell-based; conditions: HL60 cell adhesion to Fg (10 μg/mL); antagonists; mean ± SD
T2 construct: HL60 cells, mainly expressing the leukocyte integrin αMβ2; host or cells: HL60 (PMA-treated)
Protocol: (§4) To this purpose, the ability of the best peptidomimetics to modulate cell adhesion mediated by integrins other than α4β1 was evaluated in HL60 cells, mainly expressing the leukocyte integrin αMβ2, and on K562 cells, mainly expressing α5β1, which shares a β1 subunit with the heterodimer α4β1. […] In contrast, 13 was a moderate promoter of cell adhesion mediated by αMβ2 integrin, behaving as an agonist. Regarding α5β1 integrin, none of the peptidomimetics employed were able to modulate K562 cell adhesion, thus being shown to be completely ineffective toward α5β1 integrin. The reference compound DS-70 was ineffective toward both αMβ2 and α5β1 integrins under the same experimental conditions (Table 3).
as §1, §2, §3
Cell culture. Jurkat E6.1 (expressing both α4β1 and αLβ2 integrin), K562 (expressing α5β1 integrin) and HL60 (expressing α Mβ2 integrin) cell lines were purchased from ATCC (Rockville, MD, USA); these cells were routinely cultured in RPMI-1640 (Life Technologies) supplemented with 1% glutamine and 10% fetal bovine serum (FBS). Cells were grown at 37 °C under 5% CO 2 humidified atmosphere. […]

α4β1 integrin [6] = molecular target: T1, α4β1 integrin; assay: α4β1 integrin-mediated Jurkat cell adhesion to VCAM-1; format: cell-based; conditions: Jurkat cell adhesion to VCAM-1 (2 μg/mL); antag. = reduced cell adhesion; mean ± SD
Protocol: as §4, §1, §2, §3

[7] = parameters: method as in PMID 30051467, PMID 33584300; conditions: cited from earlier work
α5β1 integrin = molecular target: T3, α5β1 integrin (Homo sapiens, UniProt P05556+P08648); assay: α5β1 integrin-mediated K562 cell adhesion to FN; format: cell-based; conditions: K562 cell adhesion to FN (10 μg/mL)
T3 construct: K562 cells, mainly expressing α5β1, which shares a β1 subunit with the heterodimer α4β1; host or cells: K562 (PMA-treated)
Protocol: as §4
For adhesion assays mediated by α5β1 integrin, K562 cells were pre-treated with PMA (64.85 nM, Merck Life Science, Milan, Italy) for 48 h to enhance α5β1 integrin expression. 96-well plates were coated via passive adsorption with FN (10 μg/mL) overnight at 4 °C; then, the following day, plates were blocked by adding 100 μL/well of a blocking solution (1% BSA in PBS) and incubated for 1 h at 37 °C. K562 cells were counted and preincubated with various concentrations (10^−10–10^−4 M) of the peptides or with the vehicle for 30 min at RT. Then, K562 cells were plated (50,000 cells/well) and incubated at RT for 1 h. The wells were then washed three times with 1% BSA in PBS, and 50 μL of hexosaminidase substrate was added and incubated at RT for 1 h. After the addition of 100 μL of stopping solution (50 mM glycine and 5 mM EDTA, pH 10.4), plates were read at 405 nm in an EnSpire Multimode Plate Reader.
as §3
Cell culture. Jurkat E6.1 (expressing both α4β1 and αLβ2 integrin), K562 (expressing α5β1 integrin) and HL60 (expressing α Mβ2 integrin) cell lines were purchased from ATCC (Rockville, MD, USA); these cells were routinely cultured in RPMI-1640 (Life Technologies) supplemented with 1% glutamine and 10% fetal bovine serum (FBS). Cells were grown at 37 °C under 5% CO 2 humidified atmosphere. 40 h before the adhesion assays, K562 and HL60 cells were treated with 25 nM or 40 nM phorbol 12 -myristate 13-acetate (PMA; Sigma-Aldrich), respectively, to induced cell differentiation and to increased α5β1 or αMβ2 integrin expression on cell surface (Baiula et al., 2016).
Cell adhesion assays . Concentration-response curves, obtained from cell adhesion assays performed in […]
Figure S1. […]

α4β1 integrin [8] = molecular target: T1, α4β1 integrin; assay: HUTS-21 monoclonal antibody binding (α4β1 integrin conformation), flow cytometry; format: cell-based; conditions: Jurkat E6.1 cells; compounds 1–100 nM; FN 10 µg/mL; versus vehicle
Excerpt: Integrin functions are regulated by a number of conformational changes in the protein itself. […] Conformational changes can be evaluated by using conformationally sensitive antibodies which specifically recognize epitopes exposed only in a defined structural conformation. To better depict peptidomimetics–α4β1 integrin interactions, we employed PE-conjugated HUTS-21 mAb that recognizes an epitope mapped to the hybrid domain of the β1 subunit.
Conversely, antagonists 3, 8, and 13, although binding to α4β1 integrin as previously shown, were not able to induce any conformational rearrangement, showing very low binding of HUTS-21 mAb.
Flow cytometry analysis was performed as previously described, with the following modifications. Jurkat E6.1 cells were resuspended in 1% BSA in HBSS (50,000 cells/sample); then, FN (10 μg/mL) and two concentrations of the best peptidomimetics (100–1 nM) were added to the cells for 30 min. Thereafter, phycoerythrin (PE)-conjugated, conformational-sensitive HUTS-21 mAb (PE mouse anti-human CD29 antibody, Becton Dickinson Italia, Milan, Italy) (20 μL/sample) was added for 45 min at room temperature; after two washes, Jurkat E6.1 cells were suspended in PBS, and 10,000 cells/sample were acquired in a Guava®EasyCyte Flow Cytometer. The data are presented as the mean fluorescence intensity (MFI). Data were normalized with the relative fluorescence for nonspecific binding evaluated by exposing the cells to an isotype control mAb set to 0.

T1 sequence (P13612 34-1032): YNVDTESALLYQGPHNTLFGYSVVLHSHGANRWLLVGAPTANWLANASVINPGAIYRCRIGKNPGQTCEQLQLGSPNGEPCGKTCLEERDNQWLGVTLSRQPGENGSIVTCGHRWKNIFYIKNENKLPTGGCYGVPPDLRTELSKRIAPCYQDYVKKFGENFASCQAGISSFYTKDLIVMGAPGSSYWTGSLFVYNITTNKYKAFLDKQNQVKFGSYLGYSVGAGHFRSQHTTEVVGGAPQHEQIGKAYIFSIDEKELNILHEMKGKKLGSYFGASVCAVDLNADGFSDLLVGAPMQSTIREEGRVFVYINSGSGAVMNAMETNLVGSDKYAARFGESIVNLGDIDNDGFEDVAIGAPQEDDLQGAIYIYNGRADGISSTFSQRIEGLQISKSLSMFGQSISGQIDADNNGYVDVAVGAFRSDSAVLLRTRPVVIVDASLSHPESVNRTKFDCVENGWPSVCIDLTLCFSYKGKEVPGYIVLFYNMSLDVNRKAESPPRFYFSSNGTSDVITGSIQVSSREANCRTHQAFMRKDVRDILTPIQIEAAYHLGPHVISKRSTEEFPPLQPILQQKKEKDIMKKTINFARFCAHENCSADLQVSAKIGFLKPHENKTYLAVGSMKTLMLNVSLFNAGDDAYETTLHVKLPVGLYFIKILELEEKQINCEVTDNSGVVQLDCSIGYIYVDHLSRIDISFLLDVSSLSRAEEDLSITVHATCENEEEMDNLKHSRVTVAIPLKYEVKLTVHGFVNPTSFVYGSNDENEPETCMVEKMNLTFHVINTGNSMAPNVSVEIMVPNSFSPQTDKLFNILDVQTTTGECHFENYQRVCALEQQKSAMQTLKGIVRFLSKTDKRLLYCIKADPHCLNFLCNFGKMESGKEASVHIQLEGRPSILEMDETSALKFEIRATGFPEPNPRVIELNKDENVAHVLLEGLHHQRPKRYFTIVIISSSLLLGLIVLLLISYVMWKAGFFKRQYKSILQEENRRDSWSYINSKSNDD
T1 sequence (P05556 21-798): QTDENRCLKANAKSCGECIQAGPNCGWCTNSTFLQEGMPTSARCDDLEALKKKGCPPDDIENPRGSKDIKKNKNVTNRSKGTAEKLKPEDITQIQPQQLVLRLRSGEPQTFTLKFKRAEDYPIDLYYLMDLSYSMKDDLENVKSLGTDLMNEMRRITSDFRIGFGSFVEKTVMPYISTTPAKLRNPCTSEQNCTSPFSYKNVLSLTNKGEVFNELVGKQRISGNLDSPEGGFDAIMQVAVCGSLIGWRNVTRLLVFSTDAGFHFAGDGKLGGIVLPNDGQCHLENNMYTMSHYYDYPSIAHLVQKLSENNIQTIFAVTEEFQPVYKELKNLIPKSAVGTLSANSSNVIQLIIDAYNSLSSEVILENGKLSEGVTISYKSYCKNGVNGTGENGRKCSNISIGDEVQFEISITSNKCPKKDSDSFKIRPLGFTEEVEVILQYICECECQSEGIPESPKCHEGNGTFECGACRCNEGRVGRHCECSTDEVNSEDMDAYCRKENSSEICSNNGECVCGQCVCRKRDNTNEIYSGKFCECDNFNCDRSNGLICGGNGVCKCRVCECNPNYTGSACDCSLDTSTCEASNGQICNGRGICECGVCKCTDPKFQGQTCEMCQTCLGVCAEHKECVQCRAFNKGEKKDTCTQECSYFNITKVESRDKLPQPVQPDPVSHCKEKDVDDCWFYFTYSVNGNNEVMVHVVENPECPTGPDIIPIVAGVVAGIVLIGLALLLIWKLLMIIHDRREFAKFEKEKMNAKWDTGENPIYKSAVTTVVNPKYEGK
T2 sequence (P05107 23-769, other chains not shown): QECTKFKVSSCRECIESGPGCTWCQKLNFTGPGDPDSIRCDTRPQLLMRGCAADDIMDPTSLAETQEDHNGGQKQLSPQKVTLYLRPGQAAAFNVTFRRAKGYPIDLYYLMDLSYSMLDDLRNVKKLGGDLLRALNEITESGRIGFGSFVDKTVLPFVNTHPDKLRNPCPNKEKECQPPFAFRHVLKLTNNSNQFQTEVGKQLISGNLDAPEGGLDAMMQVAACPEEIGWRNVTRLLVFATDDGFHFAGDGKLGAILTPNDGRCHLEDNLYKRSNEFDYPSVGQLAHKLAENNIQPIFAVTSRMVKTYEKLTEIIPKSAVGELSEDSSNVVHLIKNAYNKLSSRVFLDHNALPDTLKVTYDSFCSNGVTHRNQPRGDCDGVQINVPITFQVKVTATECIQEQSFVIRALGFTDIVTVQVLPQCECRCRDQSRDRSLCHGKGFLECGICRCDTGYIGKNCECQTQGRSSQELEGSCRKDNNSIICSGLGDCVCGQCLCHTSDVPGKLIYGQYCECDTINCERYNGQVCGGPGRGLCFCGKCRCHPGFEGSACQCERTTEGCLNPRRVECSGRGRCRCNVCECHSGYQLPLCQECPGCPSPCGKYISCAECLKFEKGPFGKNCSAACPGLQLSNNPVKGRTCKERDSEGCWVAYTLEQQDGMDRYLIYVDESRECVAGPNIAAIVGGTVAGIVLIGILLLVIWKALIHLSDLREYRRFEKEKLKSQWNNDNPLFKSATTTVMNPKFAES
T3 sequence (P08648 42-894 limits assumed): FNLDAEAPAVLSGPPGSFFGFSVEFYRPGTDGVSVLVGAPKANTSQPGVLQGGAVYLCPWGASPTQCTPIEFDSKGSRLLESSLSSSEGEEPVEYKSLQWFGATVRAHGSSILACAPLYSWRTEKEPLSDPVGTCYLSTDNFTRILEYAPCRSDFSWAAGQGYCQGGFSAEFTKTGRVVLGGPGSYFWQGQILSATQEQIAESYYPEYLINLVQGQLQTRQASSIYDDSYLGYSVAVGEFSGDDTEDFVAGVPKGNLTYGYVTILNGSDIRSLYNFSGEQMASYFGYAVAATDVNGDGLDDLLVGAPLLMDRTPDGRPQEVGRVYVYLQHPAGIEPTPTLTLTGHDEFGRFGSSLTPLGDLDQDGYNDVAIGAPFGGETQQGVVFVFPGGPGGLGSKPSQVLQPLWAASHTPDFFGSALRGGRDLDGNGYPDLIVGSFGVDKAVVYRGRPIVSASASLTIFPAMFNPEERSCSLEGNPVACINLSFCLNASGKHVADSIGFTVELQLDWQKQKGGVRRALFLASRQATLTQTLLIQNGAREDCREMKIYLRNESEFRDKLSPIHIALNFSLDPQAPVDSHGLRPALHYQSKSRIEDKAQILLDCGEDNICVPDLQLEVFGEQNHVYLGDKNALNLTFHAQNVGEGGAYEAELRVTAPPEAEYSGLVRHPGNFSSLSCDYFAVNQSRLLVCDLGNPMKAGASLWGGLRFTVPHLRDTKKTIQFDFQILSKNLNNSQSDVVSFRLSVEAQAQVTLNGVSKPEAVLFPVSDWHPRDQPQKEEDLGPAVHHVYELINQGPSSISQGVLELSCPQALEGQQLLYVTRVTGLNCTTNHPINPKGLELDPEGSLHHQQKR
T3 sequence (P08648 895-1049 partner limits assumed): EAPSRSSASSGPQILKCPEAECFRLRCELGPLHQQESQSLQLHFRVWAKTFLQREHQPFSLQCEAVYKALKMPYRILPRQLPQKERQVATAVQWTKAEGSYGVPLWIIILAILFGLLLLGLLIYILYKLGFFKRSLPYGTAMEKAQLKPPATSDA
T3 sequence (P05556 21-798): as the sequence (P05556 21-798) above

Compound: Cc1ccccc1NC(=O)Nc1ccc(CC(=O)NC[C@H](C)C(=O)NCC(=O)O)cc1 [compound 1]
receptor affinity (in words) (α4β1 integrin [1]; α4β1 integrin): complete lack of receptor affinity

Compound: Cc1ccccc1NC(=O)Nc1ccc(CNC(=O)[C@H](C)CNC(=O)CC(=O)O)cc1 [compound 9]
IC50 (α4β1 integrin [2]): > 5 µM

Compound: Cc1ccccc1NC(=O)Nc1ccc(CC(=O)N[C@@H](CC(C)C)C(=O)N[C@@H](CC(=O)O)C(=O)N[C@H](C(=O)N2CCC[C@H]2C(=O)O)C(C)C)cc1 [BIO1211, MPUPA-Leu-Asp-Val-ProOH] ({NH(2-Me-phenyl)-CO}-[X1]LDVP-OH)
stability in a biological environment [3]: scarcely stable | clearance in vivo [4]: rapid clearance | antigen-induced airway hyper-responsiveness [5]: capable of inhibiting

Compound: Cc1ccccc1NC(=O)Nc1ccc(CC(=O)N2CC[C@H](C(=O)NCC(=O)O)C2)cc1 [DS-70, MPUPA-β^2Pro-Gly, reference compound]
IC50 (αMβ2 integrin): > 5 µM | IC50 (α4β1 integrin [6]): 0.00504 µM | stability in mouse serum [7]: noteworthy stability | IC50 (α4β1 integrin [2]): 0.0043 µM | Ki (α4β1 integrin [1]; intact Jurkat E6.1 cells vs. LDV-FITC, mean ± SD): 0.00094 ± 0.00032 µM | IC50 (α5β1 integrin): > 5 µM

Compound: Cc1ccccc1NC(=O)Nc1ccc(CNC(=O)[C@@H](C)CNC(=O)CC(=O)O)cc1 [compound 10]
IC50 (α4β1 integrin [2]): > 5 µM

Compound: CC(=O)N[C@@H](CNC(=O)CC(=O)O)C(=O)NCc1ccc(NC(=O)Nc2ccccc2C)cc1 [compound 11]
IC50 (α4β1 integrin [2]): > 5 µM

Compound: fibronectin [FN]
binding of HUTS-21 mAb (MFI) (α4β1 integrin [8]): increased binding of the HUTS-21 mAb

Compound: Cc1ccccc1NC(=O)Nc1ccc(CNC(=O)[C@H]2CCN(C(=O)CC(=O)O)C2)cc1 [DS-23, reference compound]
IC50 (α4β1 integrin [2]): 0.051 µM

More lines, now with the values ahead:

IC50 (α4β1 integrin [2]): > 5 µM
Compound: CC(=O)N[C@H](CNC(=O)CC(=O)O)C(=O)NCc1ccc(NC(=O)Nc2ccccc2C)cc1 [compound 12]

IC50 (α4β1 integrin [2]): > 5 µM
Compound: CCCNC(=O)[C@@H](CC(=O)NCc1ccc(NC(=O)Nc2ccccc2C)cc1)NC(=O)CC(=O)O [compound 16]

IC50 (α4β1 integrin [2]): > 5 µM
Compound: Cc1ccccc1NC(=O)Nc1ccc(CNC(=O)C[C@H](C)NC(=O)CC(=O)O)cc1 [compound 14]

IC50 (α4β1 integrin [2]): > 5 µM
Compound: CCCNC(=O)[C@H](CC(=O)NCc1ccc(NC(=O)Nc2ccccc2C)cc1)NC(=O)CC(=O)O [compound 15]
